Assay results taken from PMC8333053, “Synthesis and biological screening of new thiadiazolopyrimidine-based polycyclic compounds” (Scientific Reports, 2021).
In brackets after ≈: the same amount, converted by molar mass.

Columns and labels:
[1] = tested on: Chromobacterium violaceum (ATCC 12472); assay: Antiquorum-sensing assay (violacein pigment inhibition); type: cell-based; conditions: Chromobacterium violaceum, ATCC12472, 48 h, read-out: Diameter of quorum-sensing inhibition C. violaceum
Source text: The synthesized thiadiazolopyrimidine-based compounds were screened for their antiquorum-sensing (anti-QS) inhibition activity by the Chromobacterium violaceum (ATCC 12472) technique using catechin as the standard compound[28]–[30]. The QS technique of C. violaceum was remarked by the detection of violacein (violet pigment)[31],[32]. Meanwhile, the reactivity of the synthesized thiadiazolopyrimidine-containing derivatives as drugs depends on their efficiency to inhibit the liberation of violacein during the QS technique. The QS inhibition was determined by the following equation: QS inhibition (mm) = (r2 − r1), where r1 is the inhibition radius of the bacterial growth and r2 is the inhibition radius for growth as well as the release of the pigment.
The anti-QS inefficiency was evaluated using the previous technique mentioned in the literature.
The culture was prepared by growing Ch. violaceum ATCC 12472 in LB broth and incubated for 16–18 h in an orbital incubator running at 28°C and 150 rpm. The culture was then adjusted to 0.5 McFarland standard (ca. 1 × 10^6 CFU/mL). Ch. violaceum (50 µL) was inoculated into LB agar (50 mL), poured into plates, and solidified. Wells were made in LB agar medium using cork borer. The tested compounds were dissolved in DMSO 100% in Eppendorf tubes for final concentration of 5 mg/mL, and 50 µL of the test solution was applied into the wells. The positive control (catechin) was also added at the same concentration and volume to each plate. In addition, DMSO (control solvent) was added to each plate. […] Bacterial growth inhibition by the tested compounds was measured as radius (r1) in mm, while both growth and pigment inhibition was measured as radius (r2) in mm. The pigment inhibition (QS inhibition) was determined by subtracting bacterial growth inhibition (r1) from the total radius (r2); thus, QS inhibition = (r2 - r1) in mm.

[2] = MTT cytotoxicity assay on normal cells; type: cell-based; conditions: human, WI38 normal fibroblast cells
Experimental: (§1) The cytotoxicity of the prepared tri-and tetra-cyclic thiadiazolopyrimidine compounds were examined toward various cancer cell lines, such as liver and breast cancer (MCF-7), prostate cancer (PC3), laryngeal carcinoma (Hep-2), carcinoma (HepG2), and standard normal fibroblast cells (WI38) using the MTT assay[33] at the National Research Centre (Egypt). The cytotoxicity (Table 3) toward 50% inhibition of the cell viability (IC50 values) was assessed using 5-fluorouracil (5-Fu) as the standard anticancer drug.
(§2) The synthesized compounds were subjected to the MTT cytotoxicity assay on the basis of the cited literature.
(§3) MTT cytotoxicity assay: The technical method of MTT assay depends on the reduction of yellow 3-(4,5-methyl-2-thiazolyl)-2,5-diphenyl-2H-tetrazolium bromide (MTT) into purple formazan product, mainly by mitochondrial reductase activity inside the living cells. The cells used in cytotoxicity assay were cultured in RPMI 1640 medium supplemented with 10% fetal calf serum. Cells suspended in the medium (2×10^4 cells/mL) were plated in 96-well culture plates and incubated at 37 °C in a 5% CO2 incubator for 12 hours. The tested sample (2 μL) was added to the cells (2×10^4) in 96-well plates and cultured at 37 °C for 3 days. The cultured cells were mixed with 20 μL of MTT solution and incubated for 4 hours at 37 °C. The supernatant was carefully removed from each well, the formazan crystals were dissolved after addition of DMSO (100 μL) for each well to form the cellular reduction of MTT. After mixing with a mechanical plate mixer, the absorbance of each well was measured by a microplate reader using a test wavelength of 570 nm. The results were expressed as the IC50 values, which inducing 50% inhibition of cell growth of the treated cells when compared to the growth of control cells.

HepG2 = assay: MTT cytotoxicity assay; type: cell-based; conditions: Homo sapiens, HepG2, 72 h, 3 days
Experimental: as §1, §2, §3

PC3 = assay: MTT cytotoxicity assay; type: cell-based; conditions: Homo sapiens, PC-3, 72 h, 3 days
Experimental: as §1, §2, §3

Hep-2 = assay: MTT cytotoxicity assay; type: cell-based; conditions: Homo sapiens, HEp-2, 72 h, 3 days
Experimental: as §1, §2, §3

MCF-7 = assay: MTT cytotoxicity assay; type: cell-based; conditions: Homo sapiens, MCF7, 72 h, 3 days
Experimental: as §1, §2, §3

[3] = tested on: Aspergillus fumigatus 293; assay: Antifungal MIC, two-fold serial dilution; type: cell-based; conditions: Fungi, glucose minimal medium, 30°C, 48 h, visual (no turbidity)
Experimental: (§4) The antimicrobial activity of the synthesized thiadiazolopyrimidine compounds was studied toward diverse pathogenic strains, such as gram-positive bacteria (Staphylococcus aureus ATCC 29213 and Bacillus cereus UW85), gram-negative bacteria (Escherichia coli ATCC 12435 and Pseudomonas aeruginosa ATCC 29260), and fungi (Candida albicans and Aspergillus fumigatus 293). The assessment was performed through the two-fold dilution technique using Ampicillin (antibacterial) and Fluconazole (antifungal) as the reference drugs[28],[29]. The minimal inhibitory concentration (MICs, µg/mL) of the synthesized derivatives for prohibiting microbial growth was determined through the visual detection (no turbidity) technique.
(§5) The synthesized thiadiazolopyrimidine-based compounds were evaluated and adopted for antibacterial and antifungal effectiveness using the approved procedure[38],[39].
(§6) Minimal inhibitory concentrations (MICs) were determined by serial dilution technique using 96-multiwell microtiter plates. The investigated compounds were dissolved in DMSO 100% to prepare stock solutions of 5000 µg/mL. Two-fold serial dilutions of the dissolved compounds were performed in glucose minimal medium providing eight different concentrations (1250, 625, 312.5, 156, 78, 39, 19.5 µg/mL). The microorganisms were diluted to 1 ×10^3 SFU/mL in glucose minimal medium, and 20 µL of the diluted culture was added to the test solutions (50 µL) in the wells (one well per concentration). The plates were incubated at 30°C for 48 h. MIC was detected visually as the least concentration inhibiting fungal growth (no turbidity) and the activity of the tested compounds was estimated in comparison to fluconazole.

Candida albicans = assay: Antifungal MIC, two-fold serial dilution; type: cell-based; conditions: Fungi, glucose minimal medium, 30°C, 48 h, visual (no turbidity)
Experimental: as §4, §5, §6

Row | SMILES | zone of inhibition at 5000 µg/mL [1] [mm] | IC50 at 3 days [2] [µM] | IC50 (HepG2) [µM] | IC50 (PC3) [µM] | IC50 (Hep-2) [µM] | IC50 (MCF-7) [µM] | MIC [3] [µg/mL] | MIC (Candida albicans) [µg/mL] | melting point [°C]
1 | Cc1cc2nc3c(c(N)n2n1)c(=O)nc1scnn13 [Compound 13, 6-Amino-9-methyl-5H-pyrazolo[1′,5′:1,2]pyrimido[5,4-e][1,3,4]thiadiazolo[3,2-a]pyrimidin-5-one] | 5 | 44.4 ± 1.24 | 28.6 ± 0.41 | 35.6 ± 0.88 | 30.2 ± 0.59 | 57.6 ± 1.4 | > 1250 | 1250 (≈ 4.57 mM) | 304 to 306
2 | CCOC(=O)c1c(N)nc(N)c2c(=O)nc3scnn3c12 [Compound 7, Ethyl 6,8-diamino-5-oxo-5H-pyrido[3,4-e][1,3,4]thiadiazolo[3,2-a]pyrimidine-9-carboxylate] | < 2 | 43.8 ± 0.52 | 36.73 ± 0.17 | 61.8 ± 1.35 | 34.2 ± 0.93 | 39.8 ± 0.68 | > 1250 | > 1250 | 278 to 280
3 | COc1ccc(N=Nc2c(N)nn3c(N)c4c(=O)nc5scnn5c4nc23)cc1 [Compound 16b, 6,9-Diamino-10-(4-methoxyphenylazo)-5H-pyrazolo[1′,5′:1,2]pyrimido[5,4-e][1,3,4]thiadiazolo[3,2-a]pyrimidin-5-one] | 12 | 62.3 ± 3.03 | 42.3 ± 0.75 | 47.9 ± 1.48 | 38.2 ± 0.57 | 5.69 ± 0.39 | > 1250 | > 1250 | > 320
4 | CC1=C(C(=O)c2ccccc2)C2C(=C(N)O1)C(=O)N=C1SC=NN12 (stereo not shown) [Compound 8b, 6-Amino-9-benzoyl-8-methyl-5H,9aH-pyrano[3,4-e][1,3,4]thiadiazolo[3,2-a]pyrimidin-5-one] | 12 | 42.8 ± 1.06 | 21.62 ± 0.14 | 30.6 ± 0.57 | 14.7 ± 0.43 | 14.7 ± 0.16 | 1250 (≈ 3.67 mM) | 156 (≈ 0.458 mM) | 239 to 241
5 | Cc1n[nH]c2c1C1C(=C(N)O2)C(=O)N=C2SC=NN21 (stereo not shown) [Compound 10a, 6-Amino-10-methyl-8,10b-dihydro-5H-pyrazolo[4′,3′:5,6]pyrano[3,4-e][1,3,4]thiadiazolo[3,2-a]pyrimidin-5-one] | 13 | 23.3 ± 0.6 | 42 ± 1.24 | 40.11 ± 0.36 | 34 ± 0.46 | 24.2 ± 0.52 | > 1250 | 625 (≈ 2.26 mM) | 
6 | N#Cc1c(N)nc(N)c2c(=O)nc3scnn3c12 [Compound 6, 6,8-Diamino-9-cyano-5-oxo-5H-pyrido[3,4-e][1,3,4]thiadiazolo[3,2-a]pyrimidine] | < 2 | 14.1 ± 0.36 | 62.2 ± 1.07 | 66.3 ± 2.49 | 57.6 ± 1.72 | 49.6 ± 1.25 | > 1250 | > 1250 | 302 to 303
7 | Nc1nn(-c2ccccc2)c2c1c(=O)nc1scnn12 [Compound 5, 3-Amino-1-phenylpyrazolo[4,3-e][1,3,4]thiadiazolo[3,2-a]pyrimidin-4(1H)-one] | < 2 | 10.9 ± 0.83 | 19.2 ± 0.52 | 61.8 ± 1.68 | 61.2 ± 1.51 | 54.8 ± 1.48 | > 1250 | 1250 (≈ 4.4 mM) | 254 to 255
8 | Cc1ccc(N=Nc2c(O)nn3c(N)c4c(=O)nc5scnn5c4nc23)cc1 [Compound 17a, 6-Amino-9-hydroxy-10-(4-methylphenylazo)-5H-pyrazolo[1′,5′:1,2]pyrimido[5,4-e][1,3,4]thiadiazolo[3,2-a]pyrimidin-5-one] | 11 | 57.9 ± 1.18 | 38.27 ± 0.17 | 39.4 ± 2.01 | 29.58 ± 0.15 | 9.36 ± 0.23 | 1250 (≈ 3.18 mM) | > 1250 | 264 to 265
9 | Nc1n[nH]c2c1c(=O)nc1scnn12 [Compound 4, 3-Aminopyrazolo[4,3-e][1,3,4]thiadiazolo[3,2-a]pyrimidin-4(1H)-one] | < 2 | 9.35 ± 0.21 | 15.4 ± 0.45 | 72.3 ± 2.18 | 78.4 ± 2.2 | 61.2 ± 1.11 | > 1250 | > 1250 | 281 to 282
10 | N#Cc1cn2ncsc2nc1=O [Compound 3, 6-cyano-7-oxo-7H-[1,3,4]thiadiazolo[3,2-a]pyrimidine] | < 2 | 7.82 ± 1.33 | 82.3 ± 2.19 | 92.8 ± 3.48 | 87.5 ± 2.35 | 78 ± 1.37 | > 1250 | > 1250 | 264 to 265
11 | CC(=O)C1=C(C)OC(N)=C2C(=O)N=C3SC=NN3C12 (stereo not shown) [Compound 8a, 9-Acetyl-6-amino-8-methyl-5H,9aH-pyrano[3,4-e][1,3,4]thiadiazolo[3,2-a]pyrimidin-5-one] | 3 | 27.5 ± 0.6 | 37.12 ± 0.23 | 34.4 ± 0.64 | 22.61 ± 0.21 | 33.42 ± 0.23 | > 1250 | 312 (≈ 1.12 mM) | 
